Assay: xn = mol fraction of the nth substance listed

CCCCCCCCCO + CCOC(=O)OCC
101 kPa
Settings	viscosity [mPa·s]
293.15 K, x1 = 0.008	0.816
293.15 K, x2 = 0.03967	9.964
293.15 K, x2 = 0.1094	7.69
293.15 K, x2 = 0.1857	5.899
293.15 K, x2 = 0.2865	4.28
293.15 K, x2 = 0.4032	3.037
293.15 K, x2 = 0.504	2.306
293.15 K, x2 = 0.5999	1.794
293.15 K, x2 = 0.6927	1.434
293.15 K, x2 = 0.8085	1.112
293.15 K, x2 = 0.8962	0.941
303.15 K, x1 = 0.00855	0.711
303.15 K, x2 = 0.03166	7.163
303.15 K, x2 = 0.1064	5.544
303.15 K, x2 = 0.1908	4.257
303.15 K, x2 = 0.2925	3.17
303.15 K, x2 = 0.4014	2.365
303.15 K, x2 = 0.5113	1.798
303.15 K, x2 = 0.62	1.39
303.15 K, x2 = 0.6981	1.173
303.15 K, x2 = 0.8041	0.949
303.15 K, x2 = 0.893	0.815
313.15 K, x1 = 0.00592	0.625
313.15 K, x2 = 0.06302	4.663
313.15 K, x2 = 0.1089	4.053
313.15 K, x2 = 0.1969	3.156
313.15 K, x2 = 0.301	2.399
313.15 K, x2 = 0.4008	1.879
313.15 K, x2 = 0.5098	1.458
313.15 K, x2 = 0.6011	1.199
313.15 K, x2 = 0.689	1.006
313.15 K, x2 = 0.8072	0.812
313.15 K, x2 = 0.8932	0.711

CC(=O)N(C)C + CC(C)O
303.15 K, 101 kPa
Settings	viscosity [mPa·s]
x1 = 0.1016	1.428
x1 = 0.2027	1.222
x1 = 0.3046	1.1
x1 = 0.5032	0.994
x1 = 0.6012	0.945
x1 = 0.7055	0.939
x1 = 0.906	0.884

CCCCCCCCCO + CCCCCCCCCCO
Settings	viscosity [mPa·s]
293.15 K, 101.33 kPa, x1 = 0.1193	14.2
293.15 K, 101.33 kPa, x1 = 0.3048	13.76
293.15 K, 101.33 kPa, x1 = 0.5886	12.82
293.15 K, 101.33 kPa, x1 = 0.8745	12.02
298.15 K, 101.33 kPa, x1 = 0.2583	11.34
298.15 K, 101.33 kPa, x1 = 0.6152	10.53
298.15 K, 101.33 kPa, x1 = 0.869	9.852
298.15 K, 101.8 kPa, x1 = 0.9074	9.726
308.15 K, 101.8 kPa, x1 = 0.1082	7.899
308.15 K, 101.8 kPa, x1 = 0.3202	7.632
308.15 K, 101.8 kPa, x1 = 0.7188	7.125
308.15 K, 101.8 kPa, x1 = 0.9074	6.876
318.15 K, 101.8 kPa, x1 = 0.1082	5.649
318.15 K, 101.8 kPa, x1 = 0.3202	5.463
318.15 K, 101.8 kPa, x1 = 0.5233	5.336
318.15 K, 101.8 kPa, x1 = 0.7188	5.124
318.15 K, 101.8 kPa, x1 = 0.9074	4.953

CC(N)=O + O=C1CCCCCN1
101 kPa, x2 = 0.5
Settings	viscosity [mPa·s]
303.1 K	66.67
313.1 K	32.87
323.1 K	22.69

CC(=O)N(C)C + CCO
viscosity [mPa·s], 101 kPa
Settings	298.15 K	303.15 K	308.15 K	313.15 K	318.15 K
x1 = 0.0653	–	0.9549	0.8702	0.8052	0.7371
x1 = 0.0809	–	0.944	–	–	–
x1 = 0.1358	0.9918	0.9129	0.8423	0.7795	0.716
x1 = 0.1399	–	0.915	–	–	–
x1 = 0.2001	–	0.894	–	–	–
x1 = 0.2123	0.9588	0.8868	0.8171	0.7631	0.7077
x1 = 0.2626	–	0.878	–	–	–
x1 = 0.2954	0.9368	0.8691	0.8034	0.7509	0.6996
x1 = 0.3738	–	0.865	–	–	–
x1 = 0.386	0.9289	0.8634	0.7995	0.751	0.6999
x1 = 0.4854	0.928	0.8622	0.8019	0.753	0.7022
x1 = 0.4935	–	0.861	–	–	–
x1 = 0.5947	0.9232	0.8595	0.7991	0.7552	0.7034
x1 = 0.5953	–	0.862	–	–	–
x1 = 0.6938	–	0.863	–	–	–
x1 = 0.7155	0.9273	0.8639	0.8093	–	0.7108
x1 = 0.7965	–	0.865	–	–	–
x1 = 0.8498	0.9421	0.8705	0.81	–	0.7156
x1 = 0.8971	–	0.867	–	–	–

O=[N+]([O-])c1ccccc1O + Nc1ccccc1
viscosity [mPa·s], 101 kPa
Settings	x1 = 0.07555	x1 = 0.1616	x1 = 0.246	x1 = 0.3265	x1 = 0.4134	x1 = 0.5065	x1 = 0.5908	x1 = 0.6928	x1 = 0.7919	x1 = 0.878
303.15 K	2.972	2.863	2.805	2.802	2.828	2.881	2.952	3.068	3.225	–
313.15 K	2.322	2.257	2.224	2.215	2.23	2.272	2.328	2.415	2.515	2.61

CC(N)=O + O
101 kPa
Settings	viscosity [mPa·s]
293.15 K, x1 = 0.0438	1.015
293.15 K, x1 = 0.0791	1.178
293.15 K, x1 = 0.1282	1.416
295.65 K, x1 = 0.02282	1.222
295.65 K, x1 = 0.03616	1.155
295.65 K, x1 = 0.03629	1.149
295.65 K, x1 = 0.0429	1.262
295.65 K, x1 = 0.07191	1.716
295.65 K, x1 = 0.07575	1.47
298.15 K, x1 = 0.0024	0.89
298.15 K, x1 = 0.0185	0.991
298.15 K, x1 = 0.06152	1.232
298.15 K, x1 = 0.09656	1.458
298.15 K, x1 = 0.1531	1.875
298.15 K, x1 = 0.4073	4.442
303 K, x1 = 0.0363	1.149
303 K, x1 = 0.0438	1.015
303 K, x1 = 0.0791	1.178
303 K, x1 = 0.0928	1.416

From the CheMixHub viscosity set
